Experimental data as given in patent US20240166643A1, “IMIDAZO[1,2-A]PYRIDINE COMPOUNDS AND THEIR USE IN THERAPY” (Imperial College Innovations Limited, priority 2020, published 2024).
Where two headings read alike, the source gives them in different places. Marks after values point to notes of the source that are not given here.

Legend:
[1] = system: BL-41 cells; assay: Metabolic activity assay (MTS assay) in BL-41 cell line; format: cell-based; settings: Homo sapiens, 72 h
Protocol: Assay (b): Metabolic Activity Assay (MTS Assay)
BL-41 cells (obtained from Cell Services at the Crick Institute; cell type: Burkitt's Lymphoma) were grown in DMEM media (supplemented with 10% FBS) and were seeded in a 96-well plate, 24 h prior to treatment. Cell suspensions were prepared by adjusting the cell density to the appropriate concentration (as stated in the Table 7 below) and 50 μL of the cell suspension was transferred to wells B-G in columns 2-11 of a 96-well plate.
Seven concentrations of NMT inhibitor stock solution were prepared for each Example Compound tested (the seven concentrations were prepared as follows: 400 μL 0.2% DMSO in DMEM was added to columns 2-7 of a 96 deep well plate; 598 μL DMEM (no DMSO) was added to column 1; 1.8 μL of drug stock (50 mM in DMSO) was added to column 1 and thoroughly mixed with a 1000 μL pipette; serial dilution was performed with 200 μL from column 1 until column 7). 100 μL of Example Compound stock solution was added to wells B-G in columns 4-10 of a 96-well plate (final concentration of Example Compound in the plate starting from 10 μM or 100 μM; total volume in each well was 150 μL). The plate was incubated at 37° C. with 5% CO2 level.
After 72 h, 20 μL MTS reagent (G3580, prepared as follows: 200 μL of phenazine methosulfate (PMS) solution was added to 4 ml 3-(4,5-dimethylthiazol-2-yl)-5-(3-carboxymethoxyphenyl)-2-(4-sulfophenyl)-2H-tetrazolium inner salt (MTS) solution (16 mg in 10 ml PBS) and mix thoroughly) was added to each well of the 96-well plate. […] The average absorbance value of the negative control (Puromycin-treated cells) was subtracted from each value and the metabolic activity was calculated as a percentage relative to the positive control (DMSO-treated cells). EC50 values were calculated using GraphPad.

[2] = system: Ramos cells; assay: CellTiter-Blue assay, Ramos; format: cell-based; settings: Homo sapiens, Ramos cell line, 72 hours
Protocol: (§1) Assay (d): CellTiter-Blue® Assay
(§2) BL-41, Ramos, Raji and A20 cells (obtained from Cell Services at the Crick Institute; cell type of BL-41, Ramos, Raji: Burkitt's Lymphoma; cell type of A20: murine B cell lymphoma cell line) were grown in RPMI-1640 media in 5% CO2 (supplemented with 10% FBS). The cells were seeded in 96-well plates, 24 h prior to treatment. Cell suspensions were prepared by adjusting the cell density to the appropriate concentration (as stated in the Table 9 below) and 50 μL of the cell suspension was transferred to wells B-G in columns 2-11 of a 96-well plate. […]
(§3) 72 hours later, 20 μl/well CellTiter-Blue® (G8081, Promega) were added to the plates according to the manufacturer's protocol, the plate was incubated at 37° C. for 2 or 3-4 h (A20, Ramos and Raji: 2 h; BL-41 and EL-4: 3-4 h), followed by measuring the absorbance per well at 570 nm using an EnVision plate reader. […] The metabolic activity was calculated as a percentage relative to the positive control. The EC50 values were calculated using GraphPad Prism.

[3] = system: A20 cells; assay: CellTiter-Blue assay, A20; format: cell-based, murine; settings: Mus musculus, A20 cell line, 72 hours
Protocol: as §1, §2, §3

[4] = Rat clearance and bioavailability (iv and oral dosing); format: in vivo; settings: male, Sprague-Dawley, plasma, administered as a single compound
[5] = system: EL4 cells; assay: CellTiter-Blue assay, EL4; format: cell-based; settings: EL4 cell line, 72 hours
Protocol: as §1
Cell suspensions were prepared by adjusting the cell density to the appropriate concentration (as stated in the Table 10 below) and 50 μL of the cell suspension was transferred to wells B-G in columns 2-11 of a 96-well plate.
For each the BL-41, Ramos, Raji, A20 cell lines and EL4, twenty-four hours later, 50 μL of the growth media for the respective cell line (positive control), a mix of Puromycin and Staurosporine (negative controls, final concentration 10 μg/mL and 1 μM respectively) or different concentrations of each Example compound being tested (dilution factor=3, starting at μM, final concentration in the plate starting from 10 μM) were prepared and added to a well of the 96-well plate. The plate was incubated at 37° C. with 5% CO2 level.
72 hours later, 20 μl/well CellTiter-Blue® (G8081, Promega) were added to the plates according to the manufacturer's protocol, the plate was incubated at 37° C. for 2 or 3-4 h (A20, Ramos and Raji: 2 h; BL-41 and EL-4: 3-4 h), followed by measuring the absorbance per well at 570 nm using an EnVision plate reader. The negative control values were subtracted from every value. The metabolic activity was calculated as a percentage relative to the positive control. The EC50 values were calculated using GraphPad Prism.

[6] = system: P. falciparum Pf3D7^0087/N9; assay: Mouse malaria model, NODscidIL2Rγnull mice engrafted with human erythrocytes; settings: for activity compared to untreated control mice: day 7 post-infection
Text: Assay (h): Mouse Malaria Model Protocol
The goal of this study was to evaluate the efficacy of compounds of the invention against P. falciparum Pf3D7^0087/N9 in NODscidIL2Rγ^null mice engrafted with human erythrocytes.
Mice were euthanized on day 7.

[7] = system: SU-DHL-10 cells; assay: Cell cytotoxicity in SU-DHL-10 cell line (CellTiter-Glo); format: cell-based; settings: Homo sapiens, SU-DHL10; CellTiter-Glo, 48 h; read-out: SU-DHL-10 EC50
[8] = molecular target: T1, Plasmodium vivax (Pv) NMT (Plasmodium vivax (strain Salvador I), UniProt A5K1A2); assay: biochemical
[9] = in vitro; settings: male, Sprague-Dawley, rat, pooled cryopreserved rat hepatocytes, pH 7.4
Protocol: Assay (e): Rat Hepatocyte Half Life
Certain example compound of the present invention were tested for metabolic stability in rat metabolic assays using hepatocytes derived from pooled male Sprague-Dawley rats.
Frozen pooled rat hepatocytes obtained from LifeTechnologies were thawed and purified according to the manufacturer's instructions. The test compound (4 mM) in DMSO was diluted with acetonitrile to provide a 100 μM sub-stock then further diluted with pH 7.4 Krebs-Henseleit buffer (supplemented with CaCl2, NaHCO3, HEPES, fructose and glycine) to provide a 2 μM working solution. 25 μL of working solution was incubated at 37° C., treated with 25 μL of rat hepatocyte suspension (containing 1×10^6 cells/mL) and incubated at 37° C. with 5% CO2 level at 95% relative humidity. Wells were incubated for an appropriate time (0, 15, 30, 45, 60 and 75 min) then quenched with 250 μL of acetonitrile containing reference standards diltiazem, 7-ethoxycoumarin and propranolol). The plates were shaken, sonicated for 5 min then cooled to 4° C. until all sampling was complete. All plates were centrifuged at 4000 rpm for 20 min to pellet the debris. 110 μL supernatant was diluted 110 μL water and quantitated using LC-MS/MS.
A linear regression curve was fitted to a plot of natural logarithm (In) of AUC against time. The T-half (min)=0.693/slope

[10] = system: Raji cells; assay: CellTiter-Blue assay, Raji; format: cell-based; settings: Homo sapiens, Raji cell line, 72 hours
Protocol: as §1, §2, §3

[11] = system: Plasmodium falciparum 3D7; assay: SYBR Green assay, Plasmodium falciparum strain 3D7; format: cell-based; settings: P. falciparum strain 3D7, 96 h incubation, read-out: Pf EC50 strain 3D7
Protocol: Assay (g): SYBR Green Assay
EC50 values for Plasmodium falciparum (Pf) NMT strain 3D7 or NF54 were measured for certain compounds of the invention using an assay utilising SYBR Green dye. The assay for NMT strain 3D7 was carried out as follows:
Synchronous Plasmodium falciparum 3D7 late stage trophozoites at 33-36 h were used. Final parasitemia and haematocrit were between 0.1-0.2% and 2% respectively. Red blood cells used for the assay were centrifuged to remove the buffy coat and washed twice in Roswell Park Memorial Institute (RPMI) Media 1640 so that no white blood cells were present. The culture medium contained RPMI 1640 with 5 g/L Albumax, 0.025 g/L gentamycin and 0.292 g/L L-glutamine.
Sterile 96 well black tissue culture plates (Costar) were used routinely for every assay. […] Chloroquine was used as a standard with ten times reduced concentrations range as above. Two sets of control were used in duplicate wells, one set with no added compound of the invention or standard (positive control) and one with uninfected red blood cells (negative control).
The plates were incubated at 37° C. for 48 h in a gas chamber flushed with 5% CO2, 5% O2 and 90% N2. After 48 h supernatants were taken out from each well and replaced with fresh drug and incubated for a further 48 h in the same manner. At the end of the 96 h incubation, 25 μL of SYBR Green I dye (SYBR Green I nucleic acid gel stain 10,000×, in DMSO from Invitrogen) in lysis buffer (1 μL dye to 1 mL lysis buffer) was added to each well and stored overnight at −20° C. The lysis buffer contained Tris (20 mM, pH 8.0), EDTA (2 mM), Saponin (0.16%) and Triton X-100 (1.6% v/v).
Plates were warmed to room temperature and fluorescence intensity was measured with a FLUOstar Omega Microplate fluorescence reader (BMG Labtech). Values were expressed in relative fluorescence units. Binding of SYBR Green is specific for parasite DNA as mature erythrocytes lack DNA and RNA. Fluorescence intensity unit was converted to percentage (%) of growth as follows:
% growth=(culture under drug)−(uninfected RBC)/(culture with no drug)−(uninfected RBC)×100
and the EC50 value was determined.

[12] = system: BL-41 cells; assay: CellTiter-Blue assay, BL-41; format: cell-based; settings: Homo sapiens, BL41 cell line, 72 hours
Protocol: as §1, §2, §3

[13] = molecular target: T1, Plasmodium vivax (Pv) NMT
[14] = molecular target: Human NMT1 (HsNMT1) (Homo sapiens, UniProt P30419)
[15] = system: Shep-ER-N-Myc cell line; assay: CellTiter-Blue assay, Shep-ER-N-Myc with or without MYCN induction; format: cell-based, human; settings: 72 hours
Text: as §1
(§4) Shep-ER-N-Myc cell line (cell type: human neuroblastoma) was sourced from Linda Valentijn, and firstly reported in Valentijn et. al., Cancer Res, 2005, 65(8), 3136-3145. SKNAS-ER-N-Myc cell line (cell type: human neuroblastoma) was sourced from Michael D. Hogarty, and firstly reported in Ushmorov et al., Oncogene, 2008, 27(24), 3424-3434. P-493-6 cell line was sourced from Chi Van Dang, and firstly reported in Pajic et. al., Int J Cancer, 2000, 87(6), 787-793. P-493-6 cell line is a non-transformed B cell line that can be genetically engineered to have either “low” levels of c-Myc, “medium” levels of c-Myc or “high” levels of c-Myc. The terms “low”, “medium” and “high” are descriptors commonly used in the art and will be readily understood to mean: • i) “low” levels of c-Myc—a level of MYC expression which represents non-proliferating normal cells (i.e. a level of MYC expression not sufficient to cause the cycling of the cells); • ii) “medium” levels of c-Myc—a level of MYC expression which represents normal proliferating cells; and • iii) “high” levels of c-Myc—a level of MYC expression which represents enforced/deregulated expression of c-Myc, typically observed in cancerous cells. […]
For Shep cells, the experiment was performed in a 96 well plate and in technical quadruplicate. […] The fluorescence was measured at 570 nm using an EnVision™ plate reader. […]

[16] = system: P-493-6 cell line; assay: CellTiter-Blue assay, P-493-6 with low, medium or high c-Myc; format: cell-based, human; settings: 72 hours, different expression levels of c-Myc induced
Text: as §1, §4

[17] = system: SKNAS-ER-N-Myc cell line; assay: CellTiter-Blue assay, SKNAS-ER-N-Myc with or without MYCN induction; format: cell-based, human
Text: as §1, §4
For SKNAS cells, the experiment was performed in a 48 well plate and in technical triplicate. […] The fluorescence was measured at 570 nm using an EnVision™ plate reader. […]

T1 sequence (A5K1A2 1-410): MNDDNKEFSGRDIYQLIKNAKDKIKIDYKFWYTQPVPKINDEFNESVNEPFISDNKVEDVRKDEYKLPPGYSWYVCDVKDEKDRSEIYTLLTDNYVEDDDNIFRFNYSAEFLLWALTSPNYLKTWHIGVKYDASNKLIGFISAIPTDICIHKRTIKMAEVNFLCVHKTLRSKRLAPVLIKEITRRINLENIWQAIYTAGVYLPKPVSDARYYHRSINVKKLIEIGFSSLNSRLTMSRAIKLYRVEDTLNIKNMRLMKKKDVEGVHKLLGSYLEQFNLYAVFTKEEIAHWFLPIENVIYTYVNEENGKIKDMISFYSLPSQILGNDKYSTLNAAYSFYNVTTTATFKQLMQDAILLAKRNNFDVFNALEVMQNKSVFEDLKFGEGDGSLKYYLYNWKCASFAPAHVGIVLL
Sequence of Human NMT1 (HsNMT1) (P30419 whole entry, looked up): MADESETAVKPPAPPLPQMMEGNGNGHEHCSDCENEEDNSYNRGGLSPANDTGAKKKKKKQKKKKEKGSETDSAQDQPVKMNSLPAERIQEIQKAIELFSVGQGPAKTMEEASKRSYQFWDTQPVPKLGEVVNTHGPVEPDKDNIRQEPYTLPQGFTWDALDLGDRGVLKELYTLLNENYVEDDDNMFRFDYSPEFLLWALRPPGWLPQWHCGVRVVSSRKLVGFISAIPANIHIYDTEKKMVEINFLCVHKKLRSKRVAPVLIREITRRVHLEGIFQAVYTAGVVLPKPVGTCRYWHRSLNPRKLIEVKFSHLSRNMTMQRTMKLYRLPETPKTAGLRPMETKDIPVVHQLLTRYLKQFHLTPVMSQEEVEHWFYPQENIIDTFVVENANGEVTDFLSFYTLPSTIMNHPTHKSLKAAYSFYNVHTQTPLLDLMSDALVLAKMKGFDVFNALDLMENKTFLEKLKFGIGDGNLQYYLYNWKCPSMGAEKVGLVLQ

**Q.** With C[C@@H]1CN(c2ncc(Cl)c(N3CC(C(=O)NC(C)(C)c4cnc5ccccn45)C3)n2)CCN1C [Example 3, 1-(5-chloro-2-[(3R)-3,4-dimethylpiperazin-1-yl]pyrimidin-4-yl}-N-(2-{imidazo[1,2-a]pyridin-3-yl}propan-2-yl)azetidine-3-carboxamide] as the molecule, how does the EC50 [1] read?
**A.** 0.56 µM

**Q.** And the EC50 [2]?
**A.** 2.29 µM

**Q.** What about the EC50 [3] of the same molecule?
**A.** 6.88 µM

**Q.** And the half-life ([4]; iv 2 mg/kg, read-out: Rat iv t1/2 (converted))?
**A.** 4.3 h

**Q.** What about the bioavailability ([4]; oral 20 mg/kg) of the same molecule?
**A.** 24%

**Q.** And the EC50 [5]?
**A.** 1.24 µM

**Q.** And the “activity compared to untreated control mice” value ([6]; 4×3 mg/kg p.o.)?
**A.** 4%

**Q.** What about the “activity compared to untreated control mice” value ([6]; 4×10 mg/kg p.o.) of the same molecule?
**A.** 37%

**Q.** And the “mice / smears parasite free” value ([6]; 4×30 mg/kg p.o., day 7)?
**A.** all mice were parasite-free

**Q.** And the “activity compared to untreated control mice” value ([6]; 4×30 mg/kg p.o.)?
**A.** > 99.9%

**Q.** And the EC50 [7]?
**A.** 0.624 µM

**Q.** What about the IC50 [8] of the same molecule?
**A.** 0.0034 µM

**Q.** What about the half-life at 1 µM [9] of the same molecule?
**A.** 2.05 h

**Q.** And the EC50 [10]?
**A.** 1.1 µM

**Q.** What about the EC50 [11] of the same molecule?
**A.** 0.011 µM

**Q.** What about the EC50 [12] of the same molecule?
**A.** 0.218 µM

**Q.** With Cc1cnc(CNC(=O)C2CN(c3nc(NCCN(C)C)ncc3Cl)C2)cn1 [Comparative Example 1, reference compound] as the molecule, how does the IC50 [13] read?
**A.** 8.4 µM

**Q.** What about the IC50 [14] of the same molecule?
**A.** 46 µM

**Q.** Which IC50 [13] does the source give for CN(C)CCNc1ncc(Cl)c(N2CC(C(=O)NCc3ccc(F)cc3F)C2)n1 [Comparative Example 2] here?
**A.** 2 µM

**Q.** For C[C@@H]1CN(c2ncc(F)c(N3CC(C(=O)N(C)C(C)(C)c4cnc5ccccn45)C3)n2)CCN1C [Example 102, 1-{2-[(3R)-3,4-dimethylpiperazin-1-yl]-5-fluoropyrimidin-4-yl}-N-(2-{imidazo[1,2-a]pyridin-3-yl}propan-2-yl)-N-methylazetidine-3-carboxamide], which IC50 [8] is on record?
**A.** 0.024 µM

**Q.** And the half-life at 1 µM [9]?
**A.** 0.242 h

**Q.** What about the IC50 [14] of the same molecule?
**A.** 0.072 µM

**Q.** And the EC50 [11]?
**A.** > 1 µM

**Q.** For C[C@@H]1CN(c2ncc(Cl)c(N3CC(C(=O)NC(C)(C)c4cnc5ccccn45)C3)n2)CCN1C [Example Compound 3], which “metabolic viability of the Shep-ER-N-MYC cell line” value [15] is on record?
**A.** clear loss in metabolic viability when the cells have induction of MYCN

**Q.** What about the “metabolic viability of the P-493-6 cell line” value [16] of the same molecule?
**A.** clear MYC-dependent loss in metabolic viability

**Q.** What about the average parasitemia values ([6]; 3 mg/kg po per day on day 3, 4, 5 and 6 post-infection, day 0 post infection) of the same molecule?
**A.** 0.01%

**Q.** What about the average parasitemia values ([6]; 3 mg/kg po per day on day 3, 4, 5 and 6 post-infection, day 3 post infection) of the same molecule?
**A.** 1.49%

**Q.** And the average parasitemia values ([6]; 3 mg/kg po per day on day 3, 4, 5 and 6 post-infection, day 4 post infection)?
**A.** 4.77%

**Q.** What about the average parasitemia values ([6]; 3 mg/kg po per day on day 3, 4, 5 and 6 post-infection, day 5 post infection) of the same molecule?
**A.** 6.73%

**Q.** What about the average parasitemia values ([6]; 3 mg/kg po per day on day 3, 4, 5 and 6 post-infection, day 6 post infection) of the same molecule?
**A.** 10.66%

**Q.** And the average parasitemia values ([6]; 3 mg/kg po per day on day 3, 4, 5 and 6 post-infection, day 7 post infection)?
**A.** 11.25%

**Q.** What about the average parasitemia values ([6]; 10 mg/kg po per day on day 3, 4, 5 and 6 post-infection, day 0 post infection) of the same molecule?
**A.** 0.01%

**Q.** And the average parasitemia values ([6]; 10 mg/kg po per day on day 3, 4, 5 and 6 post-infection, day 3 post infection)?
**A.** 1.37%

**Q.** What about the average parasitemia values ([6]; 10 mg/kg po per day on day 3, 4, 5 and 6 post-infection, day 4 post infection) of the same molecule?
**A.** 2.40%

**Q.** What about the average parasitemia values ([6]; 10 mg/kg po per day on day 3, 4, 5 and 6 post-infection, day 5 post infection) of the same molecule?
**A.** 4.21%

**Q.** What about the average parasitemia values ([6]; 10 mg/kg po per day on day 3, 4, 5 and 6 post-infection, day 6 post infection) of the same molecule?
**A.** 6.09%

**Q.** And the average parasitemia values ([6]; 10 mg/kg po per day on day 3, 4, 5 and 6 post-infection, day 7 post infection)?
**A.** 7.35%

**Q.** And the average parasitemia values ([6]; 30 mg/kg po per day on day 3, 4, 5 and 6 post-infection, day 0 post infection)?
**A.** 0.01%

**Q.** And the average parasitemia values ([6]; 30 mg/kg po per day on day 3, 4, 5 and 6 post-infection, day 3 post infection)?
**A.** 0.60%

**Q.** And the average parasitemia values ([6]; 30 mg/kg po per day on day 3, 4, 5 and 6 post-infection, day 4 post infection)?
**A.** 0.18%

**Q.** And the average parasitemia values ([6]; 30 mg/kg po per day on day 3, 4, 5 and 6 post-infection, day 5 post infection)?
**A.** 0.02%

**Q.** And the average parasitemia values ([6]; 30 mg/kg po per day on day 3, 4, 5 and 6 post-infection, day 6 post infection)?
**A.** 0.01%

**Q.** And the average parasitemia values ([6]; 30 mg/kg po per day on day 3, 4, 5 and 6 post-infection, day 7 post infection)?
**A.** 0.00* %

**Q.** What about the “metabolic viability of the SKNAS-ER-N-MYC cell line” value [17] of the same molecule?
**A.** clear loss in metabolic viability when the cells have induction of MYCN
